The target of test [1] is T1, FAAH (Mus musculus, UniProt O08914).
T1 sequence (O08914 1-579): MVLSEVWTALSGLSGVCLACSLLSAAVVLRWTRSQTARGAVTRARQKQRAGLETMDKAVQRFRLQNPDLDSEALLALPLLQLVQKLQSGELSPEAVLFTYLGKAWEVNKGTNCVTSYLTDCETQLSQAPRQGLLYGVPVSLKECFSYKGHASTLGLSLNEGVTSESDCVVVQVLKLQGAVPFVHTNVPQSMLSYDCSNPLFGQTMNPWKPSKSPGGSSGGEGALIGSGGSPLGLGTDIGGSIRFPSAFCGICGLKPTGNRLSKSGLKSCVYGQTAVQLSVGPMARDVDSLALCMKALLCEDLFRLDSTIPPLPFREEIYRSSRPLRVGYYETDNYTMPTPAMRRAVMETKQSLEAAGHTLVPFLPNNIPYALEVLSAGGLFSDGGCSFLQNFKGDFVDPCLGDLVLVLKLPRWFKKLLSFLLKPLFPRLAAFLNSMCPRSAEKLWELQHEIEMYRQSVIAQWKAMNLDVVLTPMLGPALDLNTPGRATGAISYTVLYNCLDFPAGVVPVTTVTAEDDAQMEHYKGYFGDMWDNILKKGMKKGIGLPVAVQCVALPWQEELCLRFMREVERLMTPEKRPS
Description: In vitro competitive activity-based protein profiling, FAAH, mouse. To be noted: read-out: FAAH % inh. 1 μM (mouse).

The target of test [2] is T2, FAAH (Homo sapiens, UniProt O00519).
T2 sequence (O00519 1-579): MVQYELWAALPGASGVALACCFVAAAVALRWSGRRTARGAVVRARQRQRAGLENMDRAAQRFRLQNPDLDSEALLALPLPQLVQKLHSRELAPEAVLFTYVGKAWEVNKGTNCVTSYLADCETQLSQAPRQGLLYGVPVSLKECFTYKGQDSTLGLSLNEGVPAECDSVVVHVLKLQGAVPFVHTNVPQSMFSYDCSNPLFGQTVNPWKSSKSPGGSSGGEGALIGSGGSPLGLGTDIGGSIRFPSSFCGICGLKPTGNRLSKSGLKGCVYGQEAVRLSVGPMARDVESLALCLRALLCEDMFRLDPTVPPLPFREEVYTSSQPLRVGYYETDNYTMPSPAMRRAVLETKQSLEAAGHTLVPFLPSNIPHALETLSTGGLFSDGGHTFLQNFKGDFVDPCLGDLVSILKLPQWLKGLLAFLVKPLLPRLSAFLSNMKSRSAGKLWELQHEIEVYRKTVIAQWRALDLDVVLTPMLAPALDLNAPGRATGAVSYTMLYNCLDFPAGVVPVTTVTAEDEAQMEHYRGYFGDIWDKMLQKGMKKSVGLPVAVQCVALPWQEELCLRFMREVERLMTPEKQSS
Description: In vitro competitive activity-based protein profiling, FAAH, human. To be noted: for inhibition at 1 µM: read-out: FAAH % inh. 1 μM (human).

Test [3] concerns the target T3, MAGL (Mus musculus, UniProt O35678).
T3 sequence (O35678 1-303): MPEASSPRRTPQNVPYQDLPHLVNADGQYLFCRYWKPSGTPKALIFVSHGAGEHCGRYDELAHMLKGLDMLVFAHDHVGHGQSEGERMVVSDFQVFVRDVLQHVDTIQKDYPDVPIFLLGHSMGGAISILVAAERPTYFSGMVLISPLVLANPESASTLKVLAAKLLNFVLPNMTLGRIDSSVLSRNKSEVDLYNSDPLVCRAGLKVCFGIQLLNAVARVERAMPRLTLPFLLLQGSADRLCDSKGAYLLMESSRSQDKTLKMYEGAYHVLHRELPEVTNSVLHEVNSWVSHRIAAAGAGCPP
Description: In vitro competitive activity-based protein profiling, MAGL, mouse. To be noted: read-out: MAGL % inh. 1 μM (mouse).

Test [4] deals with T4, MAGL (Homo sapiens, UniProt Q99685).
T4 sequence (Q99685 1-303): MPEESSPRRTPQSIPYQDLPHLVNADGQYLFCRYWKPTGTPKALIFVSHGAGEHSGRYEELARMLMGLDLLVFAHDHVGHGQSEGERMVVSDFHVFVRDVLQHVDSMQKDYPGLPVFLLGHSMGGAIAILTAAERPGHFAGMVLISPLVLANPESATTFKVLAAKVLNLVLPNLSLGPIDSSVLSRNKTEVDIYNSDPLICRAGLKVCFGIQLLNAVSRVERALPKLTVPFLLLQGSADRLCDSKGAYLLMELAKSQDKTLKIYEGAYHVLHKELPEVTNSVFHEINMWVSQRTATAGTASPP
Description: In vitro competitive activity-based protein profiling, MAGL, human. The settings on record: for inhibition at 1 µM: read-out: MAGL % inh. 1 μM (human).

Structures are written as SMILES. Some results are limits rather than exact numbers.

Take `CN(Cc1cc(Cl)ccc1C(F)(F)F)CC1CCN(C(=O)n2cc(Cl)c(C(=O)O)n2)CC1` [Example 54, 4-chloro-1-(4-(((5-chloro-2-(trifluoromethyl)benzyl)(methyl)amino)methyl)piper-idine-1-carbonyl)-1H-pyrazole-3-carboxylic acid]: the inhibition at 1 µM on FAAH [1], on FAAH [2], at MAGL [3] and on MAGL [4] was more than 75% each time. The compound also displayed an IC50 at FAAH [2] of 0.1 to 1 µM.
For the compound `O=C(O)c1ccn(C(=O)N2CCN(Cc3ccc(C(F)(F)F)cc3N3CCC(F)(F)CC3)CC2)n1` [Example 108, 1-(4-(2-(4,4-difluoropiperidin-1-yl)-4-(trifluoromethyl)benzyl)piperazine-1-carbonyl)-1H-pyrazole-3-carboxylic acid], the inhibition at 1 µM on FAAH [1] was 0 to 25%; on FAAH [2] it was 0 to 25%; at MAGL [3], more than 75%; on MAGL [4], more than 75%.
For `O=C(O)c1ccn(C(=O)N2CCC3(CCN(Cc4ccc(Cl)cc4N4CCCC4)C3)CC2)n1` [Example 171, 1-(2-(4-chloro-2-(pyrrolidin-1-yl)benzyl)-2,8-diazaspiro[4.5]decane-8-carbonyl)-1H-pyrazole-3-carboxylic acid], the inhibition at 1 µM was 0 to 25% on FAAH [1], 0 to 25% at FAAH [2], more than 75% on MAGL [3] and more than 75% on MAGL [4]. The IC50 at FAAH [2] lay within 1 to 10 µM; on MAGL [4] it was 0.1 to 1 µM.
`O=C(O)c1ccn(C(=O)N2CCC3(CCN(Cc4cccc(OC(F)(F)F)c4)C3)CC2)n1` [Example 153, 1-(2-(3-(trifluoromethoxy)benzyl)-2,8-diazaspiro[4.5]decane-8-carbonyl)-1H-pyrazole-3-carboxylic acid]: the inhibition at 1 µM is 25 to 50% at FAAH [1], 0 to 25% on FAAH [2], more than 75% at MAGL [3] and more than 75% on MAGL [4].
As to `Cc1c(CN2CCC3(CCN(C(=O)n4ccc(C(=O)O)n4)CC3)C2)cccc1C(F)(F)F` [Example 71, 1-(2-(2-methyl-3-(trifluoromethyl)benzyl)-2,8-diazaspiro[4.5]decane-8-carbonyl)-1H-pyrazole-3-carboxylic acid], the inhibition at 1 µM at FAAH [1] was 0 to 25%; at FAAH [2] it was 0 to 25%; at MAGL [3], more than 75%; on MAGL [4], more than 75%.
As for `O=C(O)c1ccn(C(=O)N2CCC3(CCCN3Cc3ccc(C(F)(F)F)cc3N3C4CCC3COC4)CC2)n1` [Example 82, 1-(1-(2-(3-oxa-8-azabicyclo[3.2.1]octan-8-yl)-4-(trifluoromethyl)benzyl)-1,8-diazaspiro[4.5]decane-8-carbonyl)-1H-pyrazole-3-carboxylic acid], the inhibition at 1 µM is 0 to 25% on FAAH [1], 0 to 25% at FAAH [2], more than 75% on MAGL [3] and more than 75% on MAGL [4].
With `NC(=O)c1ccn(C(=O)N2CC3CN(Cc4ccc(C(F)(F)F)cc4)CC3C2)n1` (stereo not shown) [Example 182, 1-(5-(4-(trifluoromethyl)benzyl)octahydro-pyrrolo[3,4-c]pyrrole-2-carbonyl)-1H-pyrazole-3-carboxamide], the inhibition at 1 µM on FAAH [1], at FAAH [2], on MAGL [3] and at MAGL [4] was more than 75% throughout.
With `Cc1cn(C(=O)N2CCC3(CC2)CN(Cc2cc(Cl)ccc2C(F)(F)F)C3)nc1C(=O)O` [Example 131, 1-(2-(5-chloro-2-(trifluoromethyl)benzyl)-2,7-diazaspiro[3.5]non-ane-7-carbonyl)-4-methyl-1H-pyrazole-3-carboxylic acid], the inhibition at 1 µM at FAAH [1] was 0 to 25%; at FAAH [2], 0 to 25%; on MAGL [3], more than 75%; on MAGL [4], more than 75%. In addition, the figures for the IC50 on FAAH [2] and at MAGL [4] were 1 to 10 µM and 0.1 to 1 µM, respectively.
In the case of `O=C(O)c1ccn(C(=O)N2C[C@H]3C[C@@H](Oc4cccc(-c5ccccc5)c4)C[C@H]3C2)n1` [Example 164, 1-(cis-5-([1,1′-biphenyl]-3-yloxy)octahydro-cyclopenta[c]pyrrole-2-carbonyl)-1H-pyrazole-3-carboxylic acid], the inhibition at 1 µM on FAAH [1] is 25 to 50%; at FAAH [2], more than 75%; on MAGL [3], more than 75%; on MAGL [4], more than 75%. The same compound returned an IC50 on FAAH [2] of 0.1 to 1 µM.
As for `O=C(O)c1ccn(C(=O)N2CCN(Cc3ccc(C(F)(F)F)cc3N3CCC(F)CC3)CC2)n1` [Example 102, 1-(4-(2-(4-fluoropiperidin-1-yl)-4-(trifluoromethyl)benzyl)piperazine-1-carbonyl)-1H-pyrazole-3-carboxylic acid], the inhibition at 1 µM on FAAH [1] is 0 to 25%; at FAAH [2], 25 to 50%; at MAGL [3], more than 75%; on MAGL [4], more than 75%.
Consider `CN(Cc1cc(Cl)ccc1C(F)(F)F)CC1CCN(C(=O)n2ccc(C(=O)O)n2)CC1` [Example 209, 1-(4-(((5-chloro-2-(trifluoromethyl)benzyl)(methyl)amino)methyl)piper-idine-1-carbonyl)-1H-pyrazole-3-carboxylic acid], for which the inhibition at 1 µM at FAAH [1], at FAAH [2], on MAGL [3] and on MAGL [4] was more than 75% throughout. At FAAH [2], this compound returned an IC50 of 0.1 to 1 µM.
With `CN(Cc1ccc(Cl)cc1N1CCCC1)C1(C)CCN(C(=O)n2ccc(C(=O)O)n2)CC1` [Example 46, 1-(4-((4-chloro-2-(pyrrolidin-1-yl)benzyl)(methyl)amino)-4-methylpiperidine-1-carbonyl)-1H-pyrazole-3-carboxylic acid], the inhibition at 1 µM was 0 to 25% on FAAH [1], 0 to 25% at FAAH [2], more than 75% on MAGL [3] and more than 75% at MAGL [4].
Consider `Cc1cc(-c2ccccc2)ccc1CN1CCN(C(=O)n2ccc(C(=O)O)n2)C(C)C1` (stereo not shown) [Example 89, 1-(2-methyl-4-((3-methyl-[1,1′-biphenyl]-4-yl)methyl)piperazine-1-carbonyl)-1H-pyrazole-3-carboxylic acid], for which the inhibition at 1 µM at FAAH [1], on FAAH [2], at MAGL [3] and at MAGL [4] was more than 75% each time. Also, on FAAH [2], the IC50 was in the range of 0.1 to 1 µM.
Regarding `O=C(O)c1nn(C(=O)N2CCN(Cc3ccc(-c4nnn[nH]4)cc3C(F)(F)F)CC2)cc1Cl` [Example 142, 1-(4-(4-(1H-tetrazol-5-yl)-2-(trifluoromethyl)benzyl)piperazine-1-carbonyl)-4-chloro-1H-pyrazole-3-carboxylic acid], the inhibition at 1 µM on FAAH [1], on FAAH [2] and at MAGL [3] was 0 to 25% each time. Besides, the inhibition at 10 µM at MAGL [4] (read-out: MAGL % inh. (human) at 10 uM) was more than 75%.

(Values after patent US10266497B2 (ABIDE THERAPEUTICS, INC., priority 2017, dated 2019).)
